Tests used:
[1] = n-octanol/PBS distribution coefficient (logD), shake-flask method; assay type: physicochemical; details: PBS pH 7.4; average ± SD
Experimental: DOTA-[Tyr^3]-octreotide (DOTATOC) was kindly provided by ITM Medical Isotopes GmbH, Munich, Germany.
Figure S3. Graphs of bars representing the percentage of intact radiopeptide investigated at 1 h, 4 h, and 24 h after preparation and dilution in saline (10 MBq/250 μL). (A) Percentage of intact radiopeptide in solution in the absence of ascorbic acid; (B) Percentage of intact radiopeptide in solution in the presence of ascorbic acid.
S4. Determination of n‐Octanol/PBS Distribution Coefficients (LogD Values) Purpose: The n‐octanol/PBS distribution coefficients (logD values) were assessed for each radiopeptide in order to investigate their hydrophilicity and enable comparison of […]
DOTA‐LM3) were determined by a shake‐flask method, as previously reported. […] The logD values were calculated as the logarithm of the ratio of counts per minute (cpm) measured in the n‐octanol phase relative to the cpm measured in the PBS pH 7.4 phase. The experiments were performed three times with five replicates for each radiopeptide and the logD value was expressed as the average ± standard deviation (SD) of the values obtained in each experiment. […]
Methods: A potential blockade of the uptake of [161Tb]Tb‐DOTA‐LM3 into AR42J cells was determined in the presence of >1000‐fold excess unlabeled DOTANOC or DOTA‐LM3 relative to the radiopeptide using the same protocol as reported in the main article. […]

AR42J tumor-bearing mice = test: Biodistribution in AR42J tumor-bearing nude mice; assay type: in vivo; details: i.v. 5 MBq, 1 nmol/mouse
From the text: Five-week-old female CD-1 nude mice were purchased from Charles River Laboratories (Sulzfeld, Germany).

For `C[C@@H](O)[C@@H]1NC(=O)[C@H](CCCCN)NC(=O)[C@@H](Cc2c[nH]c3ccccc23)NC(=O)[C@H](Cc2ccc(O)cc2)NC(=O)[C@@H](NC(=O)[C@@H](Cc2ccccc2)NC(=O)CN2CCN(CC(=O)O)CCN(CC(=O)O)CCN(CC(=O)O)CC2)CSSC[C@@H](C(=O)N[C@H](CO)[C@@H](C)O)NC1=O` [[^161Tb]Tb-DOTATOC] [metal not drawn], the “logD value (n-octanol/PBS distribution coefficient)” value [1] was −3.3 ± 0.2.
For `C[C@@H](O)[C@@H]1NC(=O)[C@H](CCCCN)NC(=O)[C@@H](Cc2c[nH]c3ccccc23)NC(=O)[C@H](Cc2ccc(O)cc2)NC(=O)[C@@H](NC(=O)[C@@H](Cc2ccccc2)NC(=O)CN2CCN(CC(=O)O)CCN(CC(=O)O)CCN(CC(=O)O)CC2)CSSC[C@@H](C(=O)N[C@H](CO)[C@@H](C)O)NC1=O` [[^177Lu]Lu-DOTATOC] [metal not drawn, reference compound], the “logD value (n-octanol/PBS distribution coefficient)” value [1] was −3.1 ± 0.2, the “AR42J Tumor” value (AR42J tumor-bearing mice; 2 h p.i.) was 8.9 ± 1.5 % IA/g and the Adrenals (AR42J tumor-bearing mice; 2 h p.i.) was 0.28 ± 0.08 % IA/g. For the same compound, the Blood (AR42J tumor-bearing mice; 2 h p.i.) was no more than 0.10 % IA/g, the Femur (AR42J tumor-bearing mice; 2 h p.i.) was no more than 0.10 % IA/g and the Heart (AR42J tumor-bearing mice; 2 h p.i.) was no more than 0.10 % IA/g. For the same compound, the Intestines (AR42J tumor-bearing mice; 2 h p.i.) was 0.20 ± 0.05 % IA/g, the Liver (AR42J tumor-bearing mice; 2 h p.i.) was 0.26 ± 0.07 % IA/g and the Lung (AR42J tumor-bearing mice; 2 h p.i.) was 0.37 ± 0.06 % IA/g. It also gave a Muscle (AR42J tumor-bearing mice; 2 h p.i.) of no more than 0.10 % IA/g, a Pancreas (AR42J tumor-bearing mice; 2 h p.i.) of 0.80 ± 0.13 % IA/g and a Stomach (AR42J tumor-bearing mice; 2 h p.i.) of 0.65 ± 0.11 % IA/g. It also gave a Blood (AR42J tumor-bearing mice; 24 h p.i.) of no more than 0.10 % IA/g, a Femur (AR42J tumor-bearing mice; 24 h p.i.) of no more than 0.10 % IA/g and a Heart (AR42J tumor-bearing mice; 24 h p.i.) of no more than 0.10 % IA/g. The Intestines (AR42J tumor-bearing mice; 24 h p.i.) was no more than 0.10 % IA/g, the Kidneys (AR42J tumor-bearing mice; 24 h p.i.) was 5.9 ± 2.1 % IA/g and the Liver (AR42J tumor-bearing mice; 24 h p.i.) was 0.13 ± 0.02 % IA/g. The Muscle (AR42J tumor-bearing mice; 24 h p.i.) was no more than 0.10 % IA/g, the Pancreas (AR42J tumor-bearing mice; 24 h p.i.) was 0.21 ± 0.04 % IA/g and the Spleen (AR42J tumor-bearing mice; 24 h p.i.) was no more than 0.10 % IA/g.

Reference: paper PMC8070648, “Simultaneous Visualization of ^161Tb- and ^177Lu-Labeled Somatostatin Analogues Using Dual-Isotope SPECT Imaging” (Pharmaceutics, 2021)
